From ChEMBL document CHEMBL5634089, “Design, synthesis and evaluation of 2-pyrimidinylindole derivatives as anti-obesity agents by regulating lipid metabolism” (Eur J Med Chem, 2023)
In brackets after ≈: the same amount, converted by molar mass. Activity calls are given as the source filed them. No cut-off for these calls is given here.

Experiments:
[1] = Apparent volume of distribution during terminal phase in Sprague-Dawley rat at 2 mg/kg, iv administered for 24 hrs by LC-MS/MS analysis; assay type: ADME, organism-based; settings: in vivo
[2] = Therapeutic index, ratio of IC50 for cytotoxicity against mouse 3T3-L1 cells to EC50 for anti-adipogenic in mouse 3T3-L1 cells; assay type: toxicity, cell-based; settings: read-out: Ratio IC50/EC50
3T3-L1 [3] = experiment: Anti-adipogenic activity against mouse 3T3-L1 cells assessed as decrease in Scd1 mRNA expression at 0.2 to 0.8 uM incubated for 3 days by RT-PCR analysis; assay type: functional, cell-based; settings: dose 0.2-0.8 µM, time 3.0 day
[4] = Tmax in Sprague-Dawley rat at 20 mg/kg, po administered for 24 hrs by LC-MS/MS analysis; assay type: ADME, organism-based; settings: in vivo
Mus musculus [5] = experiment: Anti-obesity activity in high-fat and high-cholesterol diet induced C57BL/6J mouse assessed as reduction in total cholesterol level at 20 mg/kg, ip administered every day for 6 weeks; assay type: functional, organism-based
Mus musculus [6] = experiment: Anti-obesity activity in high-fat and high-cholesterol diet induced C57BL/6J mouse assessed as attenuation of inflammation in liver at 20 mg/kg, ip administered everyday for 6 weeks by hematoxylin and eosin staining based microscopic analysis; assay type: functional, organism-based
Mus musculus [7] = experiment: Anti-obesity activity in high-fat and high-cholesterol diet induced C57BL/6J mouse model assessed as reduction in body weight at 20 mg/kg, ip administered every day for 6 weeks and measured daily relative to control; assay type: functional; design: scale not given: the % may be the effect or the level left
3T3-L1 [8] = experiment: Anti-adipogenic activity against mouse 3T3-L1 cells assessed as decrease in Acc mRNA expression at 0.2 to 0.8 uM incubated for 3 days by RT-PCR analysis; assay type: functional, cell-based; settings: dose 0.2-0.8 µM, time 3.0 day
3T3-L1 [9] = experiment: Anti-adipogenic activity against mouse 3T3-L1 cells assessed as increase in Acsl1 mRNA expression at 0.2 to 0.8 uM incubated for 3 days by RT-PCR analysis; assay type: functional, cell-based; settings: dose 0.2-0.8 µM, time 3.0 day
[10] = Aqueous solubility of compound incubated for 24 hrs by HPLC analysis; assay type: physicochemical; settings: aqueous medium
[11] = Cmax in Sprague-Dawley rat at 20 mg/kg, po administered for 24 hrs by LC-MS/MS analysis; assay type: ADME, organism-based; settings: in vivo
3T3-L1 [12] = experiment: Anti-adipogenic activity against mouse 3T3-L1 cells assessed as decrease in Elovl6 mRNA expression at 0.2 to 0.8 uM incubated for 3 days by RT-PCR analysis; assay type: functional, cell-based; settings: dose 0.2-0.8 µM, time 3.0 day
[13] = Cytotoxicity against mouse 3T3-L1 cells assessed as reduction in cell viability incubated for 24 hrs by Sulforhodamine B assay; assay type: toxicity, cell-based
[14] = Half life in Sprague-Dawley rat at 2 mg/kg, iv administered for 24 hrs by LC-MS/MS analysis; assay type: ADME, organism-based; settings: in vivo
Mus musculus [15] = experiment: Anti-obesity activity in high-fat and high-cholesterol diet induced C57BL/6J mouse assessed as reduction in fat mass at 20 mg/kg, ip administered every day for 6 weeks; assay type: functional, organism-based
Mus musculus [16] = experiment: Anti-obesity activity in high-fat and high-cholesterol diet induced C57BL/6J mouse assessed as reduction in serum glucose level at 20 mg/kg, ip measured after 3 weeks by GTT analysis; assay type: functional, organism-based
3T3-L1 [17] = experiment: Anti-adipogenic activity against mouse 3T3-L1 cells assessed as decrease in ATP citrate lyase mRNA expression at 0.2 to 0.8 uM incubated for 3 days by RT-PCR analysis; assay type: functional, cell-based; settings: dose 0.2-0.8 µM, time 3.0 day

CC(=O)c1c(-c2nccc(NCCN3CCCC3)n2)[nH]c2ccccc12
Vz/F [1]: 24.4 L/kg | selectivity ratio [2]: 255 | Activity (3T3-L1 [3]): Active | Tmax [4]: 2.8 h | Activity (Mus musculus [5]): Active | Activity (Mus musculus [6]): Active | Activity (Mus musculus [7]): 17.4% | Activity (3T3-L1 [8]): Active | Activity (3T3-L1 [9]): Active | solubility at 24 h [10]: 161 µg/mL (≈ 461 µM) | Cmax [11]: 168 ng/mL | Activity (3T3-L1 [12]): Active | IC50 at 24 h [13]: 27 µM | half-life [14]: 1.9 h | Activity (Mus musculus [15]): Active | Activity (Mus musculus [16]): Active | Activity (3T3-L1 [17]): Active
